Laboratory results taken from US10457703B2, “Bile acid derivatives as FXR/TGR5 agonists and methods of use thereof” (ENANTA PHARMACEUTICALS, INC., priority 2015, dated 2019).

Target: human FXR (NR1H4) (Homo sapiens (Human), UniProt Q96RI1)
Experiment: Human FXR (NR1H4) Assay (Gal4 promoter driven luciferase reporter, Indigo Bioscience kit);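 on Efficacy (%): 100% equals the efficacy of CDCA; efficacy normalized to CDCA set as 100%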
Format: cell-based
Details: for EC50: Human FXR (NR1H4) Assay, potency ranges; for Emax: read-out: Efficacy (%)
Method in brief: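 CHO reporter cells expressing human FXR with an FXR-responsive luciferase reporter, treated with compound doses at 0.2% DMSO. Incubation lasted 22 h at 37 °C before luciferase detection reagent was added. Luminescence was then read.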

human FXR (NR1H4), sequence (Q96RI1 whole entry, the tested form may be a part): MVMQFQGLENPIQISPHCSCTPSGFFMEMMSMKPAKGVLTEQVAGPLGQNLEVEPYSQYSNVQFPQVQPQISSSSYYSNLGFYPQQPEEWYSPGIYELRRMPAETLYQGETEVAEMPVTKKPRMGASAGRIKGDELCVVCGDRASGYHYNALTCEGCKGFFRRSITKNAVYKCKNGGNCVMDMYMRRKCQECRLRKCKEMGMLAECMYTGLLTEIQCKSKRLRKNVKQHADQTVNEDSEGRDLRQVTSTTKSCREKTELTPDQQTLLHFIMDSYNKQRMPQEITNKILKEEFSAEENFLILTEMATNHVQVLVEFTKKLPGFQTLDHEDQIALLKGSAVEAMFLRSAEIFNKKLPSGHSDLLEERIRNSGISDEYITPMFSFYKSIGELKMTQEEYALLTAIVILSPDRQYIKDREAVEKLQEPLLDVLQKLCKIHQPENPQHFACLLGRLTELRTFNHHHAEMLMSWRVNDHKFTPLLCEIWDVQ

Row | SMILES | EC50 | Emax
1 | CC[C@H]1[C@@H](O)[C@@H]2[C@H](CC[C@]3(C)[C@@H]([C@H](C)CCOC(=O)NS(=O)(=O)c4ccccc4OC(F)(F)F)CC[C@@H]23)[C@@]2(C)CC[C@@H](O)C[C@@H]12 [Example 77] | 100 to 1000 nM | 383%
2 | CC[C@H]1[C@@H](O)[C@@H]2[C@H](CC[C@]3(C)[C@@H]([C@H](C)CCOC(=O)NC4CCS(=O)(=O)CC4)CC[C@@H]23)[C@@]2(C)CC[C@@H](O)C[C@@H]12 [Example 167] | 100 to 1000 nM | 321%
3 | CC[C@H]1[C@@H](O)[C@@H]2[C@H](CC[C@]3(C)[C@@H]([C@H](C)CCOC(=O)N[C@H]4CC[C@H](O)CC4)CC[C@@H]23)[C@@]2(C)CC[C@@H](O)C[C@@H]12 [Example 185] | 100 to 1000 nM | 392%
4 | CCC(CC)S(=O)(=O)NC(=O)OCC[C@@H](C)[C@H]1CC[C@H]2[C@@H]3[C@H](O)[C@H](CC)[C@@H]4C[C@H](O)CC[C@]4(C)[C@H]3CC[C@]12C [Example 96] | < 100 nM | 388%
5 | CC[C@H]1[C@@H](O)[C@@H]2[C@H](CC[C@]3(C)[C@@H]([C@H](C)CCOC(=O)NCc4ccccc4)CC[C@@H]23)[C@@]2(C)CC[C@@H](O)C[C@@H]12 [Example 125] | 100 to 1000 nM | 305%
6 | CC[C@H]1[C@@H](O)[C@@H]2[C@H](CC[C@]3(C)[C@@H]([C@H](C)CCOC(=O)N4CCCC4)CC[C@@H]23)[C@@]2(C)CC[C@@H](O)C[C@@H]12 [Example 147] | < 100 nM | 228%
7 | CC[C@H]1[C@@H](O)[C@@H]2[C@H](CC[C@]3(C)[C@@H]([C@H](C)CCOC(=O)N4CCCCC4)CC[C@@H]23)[C@@]2(C)CC[C@@H](O)C[C@@H]12 [Example 146] | < 100 nM | 223%
8 | CC[C@H]1[C@@H](O)[C@@H]2[C@H](CC[C@]3(C)[C@@H]([C@H](C)CCOC(=O)NS(=O)(=O)c4ccc(OC(F)(F)F)c(F)c4)CC[C@@H]23)[C@@]2(C)CC[C@@H](O)C[C@@H]12 [Example 104-k] | 100 to 1000 nM | 180%
9 | CC[C@H]1[C@@H](O)[C@@H]2[C@H](CC[C@]3(C)[C@@H]([C@H](C)COC(=O)NS(=O)(=O)c4ccc(OC(C)(C)C)cc4)CC[C@@H]23)[C@@]2(C)CC[C@@H](O)C[C@@H]12 [Example 30] | < 100 nM | 261%
10 | CC[C@H]1[C@@H](O)[C@@H]2[C@H](CC[C@]3(C)[C@@H]([C@H](C)CCOC(=O)NS(=O)(=O)c4ccc(OC)c(F)c4)CC[C@@H]23)[C@@]2(C)CC[C@@H](O)C[C@@H]12 [Example 94] | < 100 nM | 268%
11 | CC[C@H]1[C@@H](O)[C@@H]2[C@H](CC[C@]3(C)[C@@H]([C@H](C)CCOC(=O)NS(=O)(=O)c4ccc(OC(C)C)cc4)CC[C@@H]23)[C@@]2(C)CC[C@@H](O)C[C@@H]12 [Example 100] | < 100 nM | 316%
12 | CC[C@H]1[C@@H](O)[C@@H]2[C@H](CC[C@]3(C)[C@@H]([C@H](C)CCOC(=O)NCc4ccc(C(C)(C)C)cc4)CC[C@@H]23)[C@@]2(C)CC[C@@H](O)C[C@@H]12 [Example 189] | 1000 to 10000 nM | 215%
13 | CC[C@H]1[C@@H](O)[C@@H]2[C@H](CC[C@]3(C)[C@@H]([C@H](C)CCOC(=O)N(C)C)CC[C@@H]23)[C@@]2(C)CC[C@@H](O)C[C@@H]12 [Example 129] | 100 to 1000 nM | 323%
14 | CC[C@H]1[C@@H](O)[C@@H]2[C@H](CC[C@]3(C)[C@@H]([C@H](C)CCOC(=O)NCCc4c[nH]c5ccccc45)CC[C@@H]23)[C@@]2(C)CC[C@@H](O)C[C@@H]12 [Example 141] | 100 to 1000 nM | 293%
15 | CC[C@H]1[C@@H](O)[C@@H]2[C@H](CC[C@]3(C)[C@@H]([C@H](C)CCOC(=O)N4CCC[C@H](CO)C4)CC[C@@H]23)[C@@]2(C)CC[C@@H](O)C[C@@H]12 [Example 203] | 100 to 1000 nM | 380%
16 | CC[C@H]1[C@@H](O)[C@@H]2[C@H](CC[C@]3(C)[C@@H]([C@H](C)CCOC(=O)NS(=O)(=O)c4ccc5c(c4)OCCO5)CC[C@@H]23)[C@@]2(C)CC[C@@H](O)C[C@@H]12 [Example 90] | < 100 nM | 225%
17 | CC[C@H]1[C@@H](O)[C@@H]2[C@H](CC[C@]3(C)[C@@H]([C@H](C)CCOC(=O)NS(=O)(=O)c4ccc(-c5ccccc5)cc4)CC[C@@H]23)[C@@]2(C)CC[C@@H](O)C[C@@H]12 [Example 68] | 100 to 1000 nM | 286%
18 | CC[C@H]1[C@@H](O)[C@@H]2[C@H](CC[C@]3(C)[C@@H]([C@H](C)CCOC(=O)NS(=O)(=O)c4cccc(C(C)(C)C)c4)CC[C@@H]23)[C@@]2(C)CC[C@@H](O)C[C@@H]12 [Example 54] | 100 to 1000 nM | 290%
19 | CC[C@H]1[C@@H](O)[C@@H]2[C@H](CC[C@]3(C)[C@@H]([C@H](C)COC(=O)NS(=O)(=O)c4ccc(-c5ccncc5)cc4)CC[C@@H]23)[C@@]2(C)CC[C@@H](O)C[C@@H]12 [Example 35] | 100 to 1000 nM | 152%
20 | CC[C@H]1[C@@H](O)[C@@H]2[C@H](CC[C@]3(C)[C@@H]([C@H](C)CCOC(=O)N4CCOCC4)CC[C@@H]23)[C@@]2(C)CC[C@@H](O)C[C@@H]12 [Example 160] | 100 to 1000 nM | 142%
21 | CC[C@H]1[C@@H](O)[C@@H]2[C@H](CC[C@]3(C)[C@@H]([C@H](C)CCCOC(=O)NS(C)(=O)=O)CC[C@@H]23)[C@@]2(C)CC[C@@H](O)C[C@@H]12 [Example 113] | 1000 to 10000 nM | 130%
22 | CC[C@H]1[C@@H](O)[C@@H]2[C@H](CC[C@]3(C)[C@@H]([C@H](C)CCOC(=O)N[C@@H]4CCC[C@@H]4O)CC[C@@H]23)[C@@]2(C)CC[C@@H](O)C[C@@H]12 [Example 206] | < 100 nM | 174%
23 | CC[C@H]1[C@@H](O)[C@@H]2[C@H](CC[C@]3(C)[C@@H]([C@H](C)CCOC(=O)NS(=O)(=O)c4ccc(F)c(F)c4)CC[C@@H]23)[C@@]2(C)CC[C@@H](O)C[C@@H]12 [Example 102] | < 100 nM | 235%
24 | CCCCS(=O)(=O)NC(=O)OCC[C@@H](C)[C@H]1CC[C@H]2[C@@H]3[C@H](O)[C@H](CC)[C@@H]4C[C@H](O)CC[C@]4(C)[C@H]3CC[C@]12C [Example 57] | < 100 nM | 392%
25 | CC[C@H]1[C@@H](O)[C@@H]2[C@H](CC[C@]3(C)[C@@H]([C@H](C)CCCOC(=O)NS(=O)(=O)c4ccc(C)cc4)CC[C@@H]23)[C@@]2(C)CC[C@@H](O)C[C@@H]12 [Example 1] | 100 to 1000 nM | 422%
26 | CC[C@H]1[C@@H](O)[C@@H]2[C@H](CC[C@]3(C)[C@@H]([C@H](C)COC(=O)NS(=O)(=O)c4ccc(-c5ccc(C(C)(C)C)cc5)s4)CC[C@@H]23)[C@@]2(C)CC[C@@H](O)C[C@@H]12 [Example 25] | 100 to 1000 nM | 182%
27 | CC[C@H]1[C@@H](O)[C@@H]2[C@H](CC[C@]3(C)[C@@H]([C@H](C)CCOC(=O)NS(=O)(=O)c4ccccn4)CC[C@@H]23)[C@@]2(C)CC[C@@H](O)C[C@@H]12 [Example 72] | 1000 to 10000 nM | 305%
